Measurements published in US10106524B2, “2,3,4,5-tetrahydropyridin-6-amine and 3,4-dihydro-2H-pyrrol-5-amine compound inhibitors of beta-secretase” (Janssen Pharmaceutica NV, priority 2015, dated 2018).

What was measured:
[1] = molecular target: T1, recombinant BACE1 protein (Homo sapiens, UniProt P56817); assay: BACE1 biochemical FRET based assay - Method 2; conditions: BACE1 0.04 μg/ml, 450 minutes, 20 μM substrate, pH 5.0; for IC50: read-out: Biochemical FRET based assay- Method 2 pIC50 (converted)
T1 construct: recombinant BACE1 protein in a final concentration of 1 μg/ml
T1 sequence (P56817 46-501): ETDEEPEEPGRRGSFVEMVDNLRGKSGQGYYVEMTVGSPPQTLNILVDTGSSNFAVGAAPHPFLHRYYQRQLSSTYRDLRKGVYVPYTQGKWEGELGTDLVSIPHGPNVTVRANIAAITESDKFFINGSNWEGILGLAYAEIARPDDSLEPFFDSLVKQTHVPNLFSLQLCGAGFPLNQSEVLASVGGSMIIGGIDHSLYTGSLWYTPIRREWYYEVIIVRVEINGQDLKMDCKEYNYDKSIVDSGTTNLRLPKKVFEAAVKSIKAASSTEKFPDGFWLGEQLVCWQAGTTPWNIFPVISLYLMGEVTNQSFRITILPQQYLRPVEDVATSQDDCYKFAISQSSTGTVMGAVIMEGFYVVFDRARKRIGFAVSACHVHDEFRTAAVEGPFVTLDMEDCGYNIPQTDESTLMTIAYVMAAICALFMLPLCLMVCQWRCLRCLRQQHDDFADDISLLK
From the text: (§1) BACE1 Biochemical FRET Based Assay
(§2) This assay is a Fluorescence Resonance Energy Transfer Assay (FRET) based assay. The substrate for this assay is an APP derived 13 amino acids peptide that contains the ‘Swedish’ Lys-Met/Asn-Leu mutation of the amyloid precursor protein (APP) beta-secretase cleavage site. This substrate also contains two fluorophores: (7-methoxycoumarin-4-yl) acetic acid (Mca) is a fluorescent donor with excitation wavelength at 320 nm and emission at 405 nm and 2,4-Dinitrophenyl (Dnp) is a proprietary quencher acceptor. […] Upon cleavage by BACE1, the fluorophore Mca is separated from the quenching group Dnp, restoring the full fluorescence yield of the donor. The increase in fluorescence is linearly related to the rate of proteolysis.
Briefly in a 384-well format recombinant BACE1 protein in a final concentration of 0.04 μg/ml is incubated for 450 minutes at room temperature with 20 μM substrate in incubation buffer (50 mM Citrate buffer pH 5.0, 0.05% PEG) in the presence of compound or DMSO. Next the amount of proteolysis is directly measured by fluorescence measurement (excitation at 320 nm and emission at 405 nm) at different incubation times (0, 30, 60, 90, 120 and 450 min). For every experiment a time curve (every 30 min between 0 min and 120 min) is used to determine the time where we find the lowest basal signal of the high control. The signal at this time (Tx) is used to subtract from the signal at 450 min. Results are expressed in RFU, as difference between T450 and Tx.
(§3) A best-fit curve is fitted by a minimum sum of squares method to the plot of % Controlmin versus compound concentration. From this an IC50 value (inhibitory concentration causing 50% inhibition of activity) can be obtained.

[2] = test system: Abeta 1-42 produced and secreted by SKNBE2 cells expressing hAPP695; assay: Cellular αLisa assay in SKNBE2 cells - Abeta 42; assay type: cell-based, human; conditions: incubated for 18 hours; for IC50: Homo sapiens, read-out: Cellular αLisa assay in SKNBE2 cells Abeta 42 pIC50 (converted)
Protocol: (§4) Cellular αLisa Assay in SKNBE2 Cells
(§5) In two αLisa assays the levels of Abeta total and Abeta 1-42 produced and secreted into the medium of human neuroblastoma SKNBE2 cells are quantified. The assay is based on the human neuroblastoma SKNBE2 expressing the wild type Amyloid Precursor Protein (hAPP695). The compounds are diluted and added to these cells, incubated for 18 hours and then measurements of Abeta 1-42 and Abeta total are taken. Abeta total and Abeta 1-42 are measured by sandwich αLisa. αLisa is a sandwich assay using biotinylated antibody AbN/25 attached to streptavidin coated beads and antibody Ab4G8 or cAb42/26 conjugated acceptor beads for the detection of Abeta total and Abeta 1-42 respectively. In the presence of Abeta total or Abeta 1-42, the beads come into close proximity. The excitation of the donor beads provokes the release of singlet oxygen molecules that trigger a cascade of energy transfer in the acceptor beads, resulting in light emission. Light emission is measured after 1 hour incubation (excitation at […] and emission at 615 nm).
as §3

[3] = test system: Abeta total produced and secreted by SKNBE2 cells expressing hAPP695; assay: Cellular αLisa assay in SKNBE2 cells - Abeta total; assay type: cell-based; conditions: Homo sapiens, incubated for 18 hours, read-out: Cellular αLisa assay in SKNBE2 cells Abeta total pIC50 (converted)
Protocol: as §4, §5, §3

[4] = molecular target: T2, recombinant BACE2 protein (Homo sapiens, UniProt Q9Y5Z0); assay: BACE2 biochemical FRET based assay; conditions: BACE2 0.4 μg/nil, 450 minutes, 10 μM substrate, pH 5.0; for IC50: read-out: Biochemical FRET based assay pIC50 (BACE2) (converted)
T2 construct: recombinant BACE2 protein in a final concentration of 0.4 μg/nil
T2 sequence (Q9Y5Z0 63-518): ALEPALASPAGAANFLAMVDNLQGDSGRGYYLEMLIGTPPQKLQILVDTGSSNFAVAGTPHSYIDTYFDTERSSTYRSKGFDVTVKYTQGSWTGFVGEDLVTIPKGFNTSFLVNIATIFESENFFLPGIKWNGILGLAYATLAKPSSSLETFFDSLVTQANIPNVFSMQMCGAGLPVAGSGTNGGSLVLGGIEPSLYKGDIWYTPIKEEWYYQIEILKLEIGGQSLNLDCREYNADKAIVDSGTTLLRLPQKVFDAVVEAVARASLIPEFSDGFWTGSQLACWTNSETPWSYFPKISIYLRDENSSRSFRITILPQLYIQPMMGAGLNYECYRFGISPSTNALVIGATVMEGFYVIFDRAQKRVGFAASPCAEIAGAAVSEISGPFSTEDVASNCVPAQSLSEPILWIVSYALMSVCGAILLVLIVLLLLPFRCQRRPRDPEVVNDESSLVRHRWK
From the text: BACE2 Biochemical FRET Based Assay
as §2, with “assay” for “assay is an APP derived 13 amino acids peptide that”, “the beta-secretase,” for “BACE1,”
Briefly in a 384-well format recombinant BACE2 protein in a final concentration of […] is incubated for 450 minutes at room temperature with 10 μM substrate in incubation buffer (50 mM Citrate buffer pH 5.0, 0.05% PEG, no DMSO) in the absence or presence of compound. Next the amount of proteolysis is directly measured by fluorescence measurement at T=0 and T=450 (excitation at 320 nm and emission at 405 nm). Results are expressed in RFU (Relative Fluorescence Units), as difference between T450 and T0.
as §3

[5] = molecular target: T1, recombinant BACE1 protein; assay: BACE1 biochemical FRET based assay - Method 1; conditions: BACE1 1 μg/ml, 120 minutes, 10 μm substrate, pH 5.0; read-out: Biochemical FRET based assay - Method 1 pIC50 (converted)
From the text: as §1, §2
Briefly in a 384-well format recombinant BACE1 protein in a final concentration of 1 μg/ml is incubated for 120 minutes at room temperature with 10 μm substrate in incubation buffer (40 mM Citrate buffer pH 5.0, 0.04% PEG, 4% DMSO) in the absence or presence of compound. Next the amount of proteolysis is directly measured by fluorescence measurement at T=0 and T=120 (excitation at 320 nm and emission at 405 nm). Results are expressed in RFU (Relative Fluorescence Units), as difference between T120 and T0.
as §3

Compound | IC50 [1] | IC50 [2] | IC50 [3] | IC50 [4] | IC50 [5] | Biochemical FRET based assay- Method 2 pIC50 [1] | Cellular αLisa assay in SKNBE2 cells Abeta 42 pIC50 [2] | Biochemical FRET based assay pIC50 (BACE2) [4]
COc1cnc(C(=O)Nc2ccc(F)c(C3(C)N=C(N)CC3C(F)(F)F)c2)cn1 (racemic) [Compound 17, (±)-N-[3-[(2S*,3R*)-5-amino-2-methyl-3-(trifluoromethyl)-3,4-dihydropyrrol-2-yl]-4-fluoro-phenyl]-5-methoxy-pyrazine-2-carboxamide] | 0.871 µM | 0.17 µM | 0.178 µM | > 10 µM |  |  |  | 
CC1(c2cc(NC(=O)c3ccc(C#N)cn3)ccc2F)N=C(N)CC1C(F)(F)F (racemic) [Compound 18, (+)-N-[3-[(2S*,3R*)-5-amino-2-methyl-3-(trifluoromethyl)-3,4-dihydropyrrol-2-yl]-4-fluoro-phenyl]-5-cyano-pyridine-2-carboxamide] | 0.38 µM | 0.0676 µM | 0.0646 µM | 2.19 µM |  |  |  | 
C[C@@]1(c2cccc(-c3cncnc3)c2)C[C@@H](C(F)(F)F)CC(N)=N1 [Compound 1, (4R,6S)-6-methyl-6-(3-pyrimidin-5-ylphenyl)-4-(trifluoromethyl)-3,4,5,6-tetrahydropyridin-2-amine] | 1.02 µM | 0.295 µM | 0.263 µM |  | 1.48 µM |  |  | 
C[C@@]1(c2cccc(-c3cncnc3)c2)C[C@H](C(F)(F)F)CC(N)=N1 [Compound 2, (4S,6S)-6-methyl-6-(3-pyrimidin-5-ylphenyl)-4-(trifluoromethyl)-3,4,5,6-tetrahydropyridin-2-amine] | > 10 µM | 4.27 µM | 3.98 µM | > 10 µM | 18.2 µM |  |  | 
CC1(c2cc(-c3cncnc3)ccc2F)N=C(N)CC1C(F)(F)F (centres unmarked) [Compound 14] | > 10 µM | 8.91 µM | 8.32 µM | > 10 µM |  |  |  | 
(±)-N-[3-[(2S*,3R*)-5-amino-2-methyl-3-(trifluoromethyl)-3,4-dihydropyrrol-2-yl]-4-fluoro-phenyl]-5-(2,2,2-trifluoroethoxy)pyrazine-2-carboxamide [Compound 24] |  |  |  |  |  | 6.10 | 6.38 | <5

Now from value to compound, other results behind:

IC50 [1] | IC50 [2] | IC50 [3] | IC50 [4] | IC50 [5] | Compound | Biochemical FRET based assay- Method 2 pIC50 [1] | Cellular αLisa assay in SKNBE2 cells Abeta 42 pIC50 [2] | Biochemical FRET based assay pIC50 (BACE2) [4]
0.0182 µM | 0.024 µM | 0.0209 µM | 0.0209 µM | 0.0263 µM | C[C@@]1(c2cccc(NC(=O)c3ncc(Cl)cc3F)c2)C[C@@H](C(F)(F)F)CC(N)=N1 [Compound 5, N-[3-[(2S,4R)-6-amino-2-methyl-4-(trifluoromethyl)-4,5-dihydro-3H-pyridin-2-yl]phenyl]-5-chloro-3-fluoro-pyridine-2-carboxamide] |  |  | 
1.62 µM | 2 µM | 1.86 µM | 1.15 µM | 4.9 µM | C[C@@]1(c2cccc(NC(=O)c3ncc(Cl)cc3F)c2)C[C@H](C(F)(F)F)CC(N)=N1 [Compound 6, N-[3-[(2S,4S)-6-amino-2-methyl-4-(trifluoromethyl)-4,5-dihydro-3H-pyridin-2-yl]phenyl]-5-chloro-3-fluoro-pyridine-2-carboxamide] |  |  | 
0.0204 µM | 0.024 µM | 0.024 µM | 0.132 µM | 0.0324 µM | C[C@@]1(c2cccc(NC(=O)c3ccc(C#N)cn3)c2)C[C@@H](C(F)(F)F)CC(N)=N1 [Compound 7, N-[3-[(2S,4R)-6-amino-2-methyl-4-(trifluoromethyl)-4,5-dihydro-3H-pyridin-2-yl]phenyl]-5-cyano-pyridine-2-carboxamide] |  |  | 
6.76 µM | 2.29 µM | 2.51 µM | > 10 µM | 9.77 µM | C[C@@]1(c2cccc(NC(=O)c3ccc(C#N)cn3)c2)C[C@H](C(F)(F)F)CC(N)=N1 [Compound 8, N-[3-[(2S,4S)-6-amino-2-methyl-4-(trifluoromethyl)-4,5-dihydro-3H-pyridin-2-yl]phenyl]-5-cyano-pyridine-2-carboxamide] |  |  | 
0.00759 µM | 0.00525 µM | 0.00589 µM | 0.0676 µM | 0.0389 µM | COc1cnc(C(=O)Nc2ccc(F)c([C@]3(C)C[C@@H](C(F)(F)F)CC(N)=N3)c2)cn1 [Compound 9, N-{3-[(2S,4R)-6-amino-2-methyl-4-(trifluoromethyl)-4,5-dihydro-3H-pyridin-2-yl]-4-fluoro-phenyl]-5-methoxy-pyrazine-2-carboxamide] |  |  | 
0.00263 µM | 0.00234 µM | 0.002 µM | 0.00407 µM | 0.0309 µM | C[C@@]1(c2cc(NC(=O)c3ccc(Cl)cn3)ccc2F)C[C@@H](C(F)(F)F)CC(N)=N1 [Compound 11] |  |  | 
0.302 µM | 0.0617 µM | 0.0813 µM | 0.692 µM |  | C[C@]1(c2cc(NC(=O)c3ccc(Cl)cn3)ccc2F)N=C(N)C[C@H]1C(F)(F)F [Compound 19, N-[3-[(2S,3R)-5-amino-2-methyl-3-(trifluoromethyl)-3,4-dihydropyrrol-2-yl]-4-fluoro-phenyl]-5-chloro-pyridine-2-carboxamide] |  |  | 
> 10 µM | 8.91 µM | 8.32 µM | > 10 µM |  | C[C@@]1(c2cc(NC(=O)c3ccc(Cl)cn3)ccc2F)N=C(N)C[C@@H]1C(F)(F)F [Compound 20, N-[3-[(2R,3S)-5-amino-2-methyl-3-(trifluoromethyl)-3,4-dihydropyrrol-2-yl]-4-fluoro-phenyl]-5-chloro-pyridine-2-carboxamide] |  |  | 
